# Measured values as given in patent US9073876B2, “Flap modulators” (JANSSEN PHARMACEUTICA NV, priority 2013, dated 2015).
# Structures can show the parent of a compound that is named as a salt.
# Molecular target: human FLAP (Homo sapiens (Human), UniProt P20292)
# Experiment: FLAP binding assay (HTRF)
# Conditions: human FLAP-containing membranes, HTRF format; average of two assay plates, duplicates; read-out: FLAP Binding wild type HTRF Ki
# Procedure: The ability of the compounds of the present invention to treat a FLAP-mediated disease and/or disorder, or associated symptoms or complications thereof, was determined using the following procedures. Binding assay data represent the average value obtained from two different assay plates, with samples run in duplicate on each plate. Human whole blood assay data represent a single replicate on an assay plate using whole blood from at least one healthy donor.
# Data are expressed as a HTRF ratio.
# Sequence of human FLAP (P20292 whole entry): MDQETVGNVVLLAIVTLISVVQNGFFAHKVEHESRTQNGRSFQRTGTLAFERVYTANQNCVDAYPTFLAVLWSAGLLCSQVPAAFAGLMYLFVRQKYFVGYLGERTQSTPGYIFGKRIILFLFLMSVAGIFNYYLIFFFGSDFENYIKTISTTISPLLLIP
row,Ki [nM],Compound
1,> 10000,"Nc1cnc(-c2ccc(C3CCC3)c(OCC(O)CN3CCC(O)C3)c2F)cn1 (mixture of isomers) [Example 308, diastereomeric mixture 1-{3-[3-(5-Aminopyrazin-2-yl)-6-cyclobutyl-2-fluorophenoxy]-2-hydroxypropyl}pyrrolidin-3-ol]"
2,324,"Nc1cnc(-c2ccc(C3CCC3)c(OCC(O)Cn3ccccc3=O)c2F)cn1 (racemic) [Example 51, racemic 1-(3-(3-(5-Aminopyrazin-2-yl)-6-cyclobutyl-2-fluorophenoxy)-2-hydroxypropyl)pyridin-2(1H)-one]"
3,992,"Nc1cnc(-c2ccc(C3CCC3)c(OCC(O)CO)c2F)cn1 (racemic) [Example 254, 3-(3-(5-Aminopyrazin-2-yl)-6-cyclobutyl-2-fluorophenoxy)propane-1,2-diol]"
4,> 10000,"Nc1cnc(-c2ccc(C3CCC3)c(OCC3CCCNC3)c2F)cn1 (racemic) [Example 299, racemic 5-[4-Cyclobutyl-2-fluoro-3-(piperidin-3-ylmethoxy)phenyl]pyrazin-2-amine]"
5,> 10000,"Nc1cnc(-c2ccc(C3CCC3)c(OCC3CCNC3)c2F)cn1 (racemic) [Example 300, racemic 5-[4-Cyclobutyl-2-fluoro-3-(pyrrolidin-3-ylmethoxy)phenyl]pyrazin-2-amine]"
6,> 10000,"Nc1cnc(-c2ccc(C3CCC3)c(OCC3CCCN3)c2F)cn1 (racemic) [Example 302, racemic 5-[4-Cyclobutyl-2-fluoro-3-(pyrrolidin-2-ylmethoxy)phenyl]pyrazin-2-amine]"
7,> 10000,"Nc1cnc(-c2ccc(C3CCC3)c(OCC(O)CN3CCCCC3)c2F)cn1 (racemic) [Example 303, racemic 5 1-[3-(5-Aminopyrazin-2-yl)-6-cyclobutyl-2-fluorophenoxy]-3-piperidin-1-ylpropan-2-ol]"
8,> 10000,"CNCC(O)COc1c(C2CCC2)ccc(-c2cnc(N)cn2)c1F (racemic) [Example 304, racemic 1-[3-(5-Aminopyrazin-2-yl)-6-cyclobutyl-2-fluorophenoxy]-3-(methylamino)propan-2-ol]"
9,> 10000,"CC(C)NCC(O)COc1c(C2CCC2)ccc(-c2cnc(N)cn2)c1F (racemic) [Example 305, racemic 1-[3-(5-Aminopyrazin-2-yl)-6-cyclobutyl-2-fluorophenoxy]-3-[(1-methylethyl)amino]propan-2-ol]"
10,> 10000,"Nc1cnc(-c2ccc(C3CCC3)c(OCC(O)CN3CCCC3)c2F)cn1 (racemic) [Example 306, racemic 1-[3-(5-Aminopyrazin-2-yl)-6-cyclobutyl-2-fluorophenoxy]-3-pyrrolidin-1-ylpropan-2-ol]"
11,> 10000,"CN(C)CC(O)COc1c(C2CCC2)ccc(-c2cnc(N)cn2)c1F (racemic) [Example 307, racemic 1-[3-(5-Aminopyrazin-2-yl)-6-cyclobutyl-2-fluorophenoxy]-3-(dimethylamino)propan-2-ol]"
12,> 10000,"Nc1cnc(-c2ccc(C3CCC3)c(OCC(O)CN3CCNCC3)c2F)cn1 (racemic) [Example 309, racemic 1-[3-(5-Aminopyrazin-2-yl)-6-cyclobutyl-2-fluorophenoxy]-3-piperazin-1-ylpropan-2-ol]"
13,> 10000,"Nc1cnc(-c2ccc(C3CCC3)c(OCC(O)Cn3cccnc3=O)c2F)cn1 (racemic) [Example 310, racemic 1-{3-[3-(5-Aminopyrazin-2-yl)-6-cyclobutyl-2-fluorophenoxy]-2-hydroxypropyl}pyrimidin-2(1H)-one]"
14,974,"Nc1cnc(-c2ccc(C3CCC3)c(OCC(O)CN3CCNC3=O)c2F)cn1 (racemic) [Example 312, racemic 1-{3-[3-(5-Aminopyrazin-2-yl)-6-cyclobutyl-2-fluorophenoxy]-2-hydroxypropyl}imidazolidin-2-one]"
15,808,"Nc1cnc(-c2ccc(C3CCC3)c(OCc3cccc(OC(F)(F)F)c3)c2F)cn1 [Example 9, 5-(4-Cyclobutyl-2-fluoro-3-{[3-(trifluoromethoxy)benzyl]oxy}phenyl)-pyrazin-2-amine]"
16,866,"Nc1cnc(-c2ccc(C3CCC3)c(OCc3ccc(OC(F)(F)F)cc3)c2F)cn1 [Example 10, 5-(4-Cyclobutyl-2-fluoro-3-{[4-(trifluoromethoxy)benzyl]oxy}phenyl)-pyrazin-2-amine]"
17,304,"Nc1cnc(-c2ccc(C3CCC3)c(OCc3ccc(F)cc3)c2F)cn1 [Example 28, 5-{4-Cyclobutyl-2-fluoro-3-[(4-fluorobenzyl)oxy]phenyl}pyrazin-2-amine]"
18,354,"Nc1cnc(-c2ccc(C3CCC3)c(OCc3ccccc3F)c2F)cn1 [Example 30, 5-{4-Cyclobutyl-2-fluoro-3-[(2-fluorobenzyl)oxy]phenyl}pyrazin-2-amine]"
19,354,"Nc1cnc(-c2ccc(C3CCC3)c(OCc3cccc(F)c3F)c2F)cn1 [Example 32, 5-{4-Cyclobutyl-3-[(2,3-difluorobenzyl)oxy]-2-fluorophenyl}pyrazin-2-amine]"

row,Ki [nM],Compound
1,612,"Nc1cnc(-c2ccc(C3CCC3)c(OCc3ccc(Cl)cc3Cl)c2F)cn1 [Example 40, 5-{4-Cyclobutyl-3-[(2,4-dichlorobenzyl)oxy]-2-fluorophenyl}pyrazin-2-amine]"
2,2000,"Nc1cnc(-c2ccc(C3CCC3)c(OCc3cccc(C(F)(F)F)c3Cl)c2F)cn1 [Example 42, 5-(3-{[2-Chloro-3-(trifluoromethyl)benzyl]oxy}-4-cyclobutyl-2-fluorophenyl)pyrazin-2-amine]"
3,430,"Nc1cnc(-c2ccc(C3CCC3)c(OCc3cc(Cl)ccc3C(F)(F)F)c2F)cn1 [Example 43, 5-(3-{[5-Chloro-2-(trifluoromethyl)benzyl]oxy}-4-cyclobutyl-2-fluorophenyl)pyrazin-2-amine]"
4,1500,"Nc1cnc(-c2ccc(C3CCC3)c(OCc3ccc(F)cc3C(F)(F)F)c2F)cn1 [Example 44, 5-(4-Cyclobutyl-2-fluoro-3-{[4-fluoro-2-(trifluoro-methyl)benzyl]oxy}phenyl)pyrazin-2-amine]"
5,1500,"Nc1cnc(-c2ccc(C3CCC3)c(OCC(=O)O)c2F)cn1 [Example 50, [3-(5-Aminopyrazin-2-yl)-6-cyclobutyl-2-fluorophenoxy]acetic acid]"
6,620,"Nc1cnc(-c2ccc(C3CCC3)c(OCC3CCCCC3)c2F)cn1 [Example 71, 5-[4-Cyclobutyl-3-(cyclohexylmethoxy)-2-fluorophenyl]pyrazin-2-amine]"
7,370,"Cc1noc(COc2c(C3CCC3)ccc(-c3cnc(N)cn3)c2F)n1 [Example 75, 5-{4-Cyclobutyl-2-fluoro-3-[(3-methyl-1,2,4-oxadiazol-5-yl)methoxy]phenyl}pyrazin-2-amine]"
8,394,"Nc1cnc(-c2ccc(C3CCC3)c(OCc3ccccc3S(F)(F)(F)(F)F)c2F)cn1 [Example 81, 5-(4-Cyclobutyl-2-fluoro-3-{[2-(pentafluoro-lambda~6~- sulfanyl)benzyl]oxy}phenyl)pyrazin-2-amine]"
9,304,"Nc1cnc(-c2ccc(C3CCC3)c(OCC3CCC3)c2F)cn1 [Example 82, 5-[4-Cyclobutyl-3-(cyclobutylmethoxy)-2-fluorophenyl]pyrazin-2-amine]"
10,250,"Nc1cnc(-c2ccc(C3CCC3)c(Oc3cnc(C(F)(F)F)cn3)c2F)cn1 [Example 105, 5-(4-Cyclobutyl-2-fluoro-3-{[5-(trifluoromethyl)pyrazin-2-yl]oxy}phenyl)pyrazin-2-amine]"
11,2500,"CS(=O)(=O)c1ccccc1Oc1c(C2CCC2)ccc(-c2cnc(N)cn2)c1F [Example 117, 5-{4-Cyclobutyl-2-fluoro-3-[2-(methylsulfonyl)phenoxy]phenyl}pyrazin-2-amine]"
12,304,"Nc1cnc(-c2ccc(C3CCC3)c(Oc3ccc(C(F)(F)F)c(C(F)(F)F)c3)c2F)cn1 [Example 120, 5-{3-[3,4-Bis(trifluoromethyl)phenoxy]-4-cyclobutyl-2-fluorophenyl}pyrazin-2-amine]"
13,250,"Nc1cnc(-c2ccc(C3CCC3)c(Oc3ncccc3C(F)(F)F)c2F)cn1 [Example 121, 5-(4-Cyclobutyl-2-fluoro-3-{[3-(trifluoromethyl)pyridin-2-yl]oxy}phenyl)pyrazin-2-amine]"
14,250,"Nc1cnc(-c2ccc(C3CCC3)c(Oc3cc(C(F)(F)F)ncn3)c2F)cn1 [Example 125, 5-(4-Cyclobutyl-2-fluoro-3-{[6-(trifluoromethyl)pyrimidin-4-yl]oxy}phenyl)pyrazin-2-amine]"
15,2200,"CS(=O)(=O)c1ccc(Oc2c(C3CCC3)ccc(-c3cnc(N)cn3)c2F)c(C(F)(F)F)c1 [Example 127, 5-(4-cyclobutyl-2-fluoro-3-(4-(methylsulfonyl)-2-(trifluoro-methyl)phenoxy)phenyl)pyrazin-2-amine]"
16,297,"Nc1cnc(-c2ccc(C3CCC3)c(Oc3ccc(C(F)(F)F)nc3)c2F)cn1 [Example 128, 5-(4-Cyclobutyl-2-fluoro-3-{[6-(trifluoromethyl)pyridin-3-yl]oxy}phenyl)pyrazin-2-amine]"
17,101,"Cn1nc(Oc2c(C3CCC3)ccc(-c3cnc(N)cn3)c2F)c(C#N)c1C(F)(F)F [Example 148, 3-[3-(5-Aminopyrazin-2-yl)-6-cyclobutyl-2-fluorophenoxy]-1-methyl-5-(trifluoromethyl)-1H-pyrazole-4-carbonitrile]"
18,2240,"CN(C)CCNc1nccc(Oc2c(C3CCC3)ccc(-c3cnc(N)cn3)c2F)n1 [Example 156, N′-{4-[3-(5-Aminopyrazin-2-yl)-6-cyclobutyl-2-fluorophenoxy]pyrimidin-2-yl}-N,N-dimethylethane-1,2-diamine hydrochloride]"
19,682,"N#Cc1nc(N)cnc1-c1ccc(C2CCC2)c(O)c1F [Example 173, 6-amino-3-(4-cyclobutyl-2-fluoro-3-hydroxyphenyl)pyrazine-2-carbonitrile]"

row,Compound,Ki [nM]
1,5-(4-Cyclobutyl-2-fluoro-3- methoxyphenyl)pyridin-2-amine hydrochloride salt [Example 178],354
